Results reported in ChEMBL document CHEMBL4316625, “Double prodrugs of a fosmidomycin surrogate as antimalarial and antitubercular agents” (Bioorg Med Chem Lett, 2019).

Tested on: Mycobacterium tuberculosis
Test: Antitubercular activity against Mycobacterium tuberculosis H37Ra ATCC 25177 transformed with pSMT1 luciferase reporter plasmid reduction in bacterial multiplication incubated for 7 days by luminometric assay
Type: functional, organism-based
Settings: H37Ra ATCC 25177, 168 h

Row | Compound | MIC
1 | CC(=O)ON(C)C(=O)CCCP(=O)(OCOC(=O)C(C)(C)C)OCOC(=O)C(C)(C)C | > 64 µM
2 | CN(OC(=O)Nc1ccccc1)C(=O)CCCP(=O)(OCOC(=O)C(C)(C)C)OCOC(=O)C(C)(C)C | > 64 µM
